Measured values from patent US7306817B2, “Herbal composition for treating CD33+ acute and chronic myeloid leukemia and a method thereof” (Council of Scientific and Industrial Research, priority 2000, dated 2007).

Columns and labels:
[1] = tested on: CD33+ myeloid leukemia cells; experiment: Destruction of CD33+ myeloid leukemia cells (patient PBMC) in vitro, viability count and flow cytometry; type: cell-based, human; conditions: purified compound, varied concentrations, 48 h
Method: (§1) Whole blood (10 ml) was drawn from a previously diagnosed CD33+ myeloid leukemic patient and mononuclear cells were separated by Ficoll/hypaqal density gradient centrifugation.
Incubation of PBMC of myeloid leukemia patients with crude Piper betel extract. PBMC (2×10^6/ml) of myeloid leukemia patients were incubated with Piper betel extract (10.0 mg/ml) for 48 hours and then washed and counted for viability.
Incubation of PBMC of myeloid leukemia patients with fraction E in vitro. PBMC (2×10^6/ml) of myeloid leukemia patients were incubated with varied concentrations of fraction E for 48 hours. Cells were then washed and counted for viability.
(§2) Incubation of PBMC of myeloid leukemia patients with purified compound 3-O-p-coumaryl quinic acid in vitro. PBMC (2×10^6/ml) of myeloid leukemia patients were incubated with varied concentrations of purified compound for 48 h. Cells were then washed, and counted for viability.
Flow cytometry of myeloid leukemia cells; Myeloid leukemia cells before and after in vitro incubation with crude Piper betel extract, purified fraction E or purified 3-O-p-coumaryl quinic acid were marked with anti-CD33-FITC and anti-CD13-PE monoclonal antibodies. Cells were then analysed in a flow cytometer (FACS Calibur, Bection Dickinson, USA).

AML cells = experiment: Growth inhibition of AML cells in vitro; type: cell-based, human; conditions: single fraction, dose 100 μg/ml, 48 hrs
Method: as §1, §2
Incubation of myeloid leukemic cells with fractions having retention time 3.60 (fraction-1) and 24.00 min (fraction 9). PBMC of myeloid leukemic patients were incubated with above-mentioned fractions, alone or in combination of the two for 48 hrs. Cells were then washed and counted for viability.

O=C(C=Cc1ccc(O)cc1)OC1CC(O)(C(=O)O)CC(O)C1O (centres unmarked) [3-O-p-coumaryl quinic acid]
effect on PBMC of CD33+ myeloid leukemia patients (both AML and CML) [1]: destroyed | % Inhibition of growth (AML cells): 54.00%
